In patent US20190119284A1, “ErbB Inhibitors and Uses Thereof” (The Regents of the University of California, priority 2016, published 2019):
Where two headings read alike, the source gives them in different places.

Legend:
Assay type in all cases: cell-based
Axl+ Ba/F3 cells = target: T1, Axl+ Ba/F3 cells (Homo sapiens, UniProt P30530); experiment: Ba/F3 proliferation assay, Axl+; conditions: Tables 7 and 8; read-out: Ba/F3 line IC50, Axl+
T1 sequence (P30530 1-894): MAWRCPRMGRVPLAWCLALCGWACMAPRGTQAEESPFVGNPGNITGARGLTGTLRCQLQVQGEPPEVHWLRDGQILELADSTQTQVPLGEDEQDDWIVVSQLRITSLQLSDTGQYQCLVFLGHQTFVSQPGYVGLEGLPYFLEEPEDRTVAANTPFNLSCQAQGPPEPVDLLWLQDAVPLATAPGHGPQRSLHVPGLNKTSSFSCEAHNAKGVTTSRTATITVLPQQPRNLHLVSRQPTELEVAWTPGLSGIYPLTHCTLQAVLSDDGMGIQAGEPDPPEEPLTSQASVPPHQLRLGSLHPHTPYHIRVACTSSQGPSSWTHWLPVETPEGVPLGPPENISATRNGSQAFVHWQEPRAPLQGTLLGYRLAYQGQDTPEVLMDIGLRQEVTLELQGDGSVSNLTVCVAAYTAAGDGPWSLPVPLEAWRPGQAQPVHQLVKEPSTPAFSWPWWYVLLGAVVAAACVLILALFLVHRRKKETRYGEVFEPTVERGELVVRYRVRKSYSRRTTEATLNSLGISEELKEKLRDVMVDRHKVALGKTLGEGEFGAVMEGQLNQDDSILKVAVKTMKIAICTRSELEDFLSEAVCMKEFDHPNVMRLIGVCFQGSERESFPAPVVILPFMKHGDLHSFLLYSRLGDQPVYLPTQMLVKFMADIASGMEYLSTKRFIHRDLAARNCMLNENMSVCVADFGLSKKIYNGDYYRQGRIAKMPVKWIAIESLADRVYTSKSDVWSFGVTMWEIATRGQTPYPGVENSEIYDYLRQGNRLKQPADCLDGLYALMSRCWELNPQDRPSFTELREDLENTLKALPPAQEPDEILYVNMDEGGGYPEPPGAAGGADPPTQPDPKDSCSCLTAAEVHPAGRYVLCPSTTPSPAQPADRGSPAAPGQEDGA
Protocol: (§1) To validate the screen and test the effectiveness of counter-screening with either the same 2YF/3wt Ba/F3 cell line or the parental Ba/F3's in the presence of IL-3 to remove cytotoxic primary hits, we first tested a panel of kinase inhibitors with established mechanisms of action.
For Axl+ cells, the transduced cells were spun down at 500×g for 5 min and resuspended in media supplemented with 10 ng/mL IL-3 and 3 μg/mL puromycin (Invitrogen). Cells were maintained in these conditions for 7 days, passaging as required. After 7 days the cells were spun down, washed with fresh media, and then suspended in IL-3 free media. The cells were maintained in these conditions for 2 weeks to select for an IL-3 independent population of Axl+ driven cells.
(§2) Proliferation Assays. For adherent cell lines, cells were plated onto opaque white 96 well plates (Greiner cat #655083) and allowed to adhere overnight. The following day media was changed to fresh media that contained either DMSO or the indicated concentration of drug plus NRG (50 ng/mL final concentration) as indicated. Plates were incubated at 37° C. for 72 h and proliferation was read out using Cell Titer Glo (Promega) according to the manufacturer's protocol. For Ba/F3 cell proliferation, cells, drug dilution, and any necessary growth factors (10 ng/mL IL-3 or 6.25 ng/mL NRG) were combined in a well of a 96 well plate. Plates were incubated at 37° C. for 48 h and proliferation was read out using Cell Titer Glo according to the manufacturer's protocol. For all normalized assays, proliferation was normalized to the DMSO control condition. All graphs were plotted in GraphPad Prism 6 and fit with a non-linear regression of the log(inhibitor) vs response with a variable slope where shown. All graphs are averages (+/−standard deviation) of biological triplicates each performed in technical triplicate unless otherwise noted. If only one biological replicate was performed standard deviations were derived from the technical replicates.

HER2+/2VE Ba/F3 line = experiment: Ba/F3 proliferation assay, HER2+/2VE; conditions: Tables 7 and 8
Protocol: as §2

[1] = system: parental Ba/F3 cells + IL-3; experiment: Ba/F3 proliferation assay, Parental + IL-3; conditions: Tables 7 and 8, read-out: Ba/F3 line IC50, Parental + IL-3
Protocol: as §1, §2

[2] = target: 2YF/3wt + NRG Ba/F3 cells (HER2YF/HER3wt) (Homo sapiens, UniProt P04626, Y1005F/Y1023F/Y1112F/Y1127F/Y1139F/Y1196F/Y1221F/Y1222F/Y1248F, cells depend on it); experiment: Ba/F3 proliferation assay, 2YF/3wt + NRG; conditions: Tables 7 and 8; read-out: Ba/F3 line IC50, HER2YF/HER3 + NRG
Source text: Ba/F3 cells are normally dependent on IL-3 signaling for their proliferation and survival, but can be made dependent on introduced oncogenic signals. We sequentially selected transduced Ba/F3 cells for populations stably expressing HER3 and then HER2. To ensure that all of the proliferative signal could be attributed to HER2/HER3 heterodimers, rather than HER2 homodimers, the 9 C-terminal tyrosines in HER2 were mutated to phenylalanine (HER2YF). We then withdrew IL-3 and supplemented the media with NRG to select for NRG dependent HER2YF/HER3wt cells (2YF/3wt).
For the 2YF/3wt cells, the parental cells were first transduced with HER3 according to the protocol above and were then spun down at 500×g for 5 min and re-suspended in media supplemented with 10 ng/mL IL-3 and 3 μg/mL puromycin (Invitrogen). Cells were maintained in these conditions for seven days, passaging as required. After seven days the cells were spun down, washed with fresh media, and then used for a subsequent round of transduction according to the protocol above with HER2YF virus. […] The cells were maintained in these conditions for seven days, passaging as required. After seven days the cells were spun down, washed with fresh media, and then suspended in media supplemented with 10 ng/mL of NRG. Cells were maintained in these conditions for seven days to select for a NRG dependent population of 2YF/3wt Ba/F3 cells that were then maintained as described above. The same protocol was used for the 2YF-L755S/3wt, 2YF-YVMA/3wt, and 2YF-VC/3wt cell lines using the indicated constructs.
Proliferation Assays. […] The following day media was changed to fresh media that contained either DMSO or the indicated concentration of drug plus NRG (50 ng/mL final concentration) as indicated. […] For all normalized assays, proliferation was normalized to the DMSO control condition. All graphs were plotted in GraphPad Prism 6 and fit with a non-linear regression of the log(inhibitor) vs response with a variable slope where shown. All graphs are averages (+/−standard deviation) of biological triplicates each performed in technical triplicate unless otherwise noted. If only one biological replicate was performed standard deviations were derived from the technical replicates.

Sequence of 2YF/3wt + NRG Ba/F3 cells (HER2YF/HER3wt) (P04626 whole entry Y1005F/Y1023F/Y1112F/Y1127F/Y1139F/Y1196F/Y1221F/Y1222F/Y1248F): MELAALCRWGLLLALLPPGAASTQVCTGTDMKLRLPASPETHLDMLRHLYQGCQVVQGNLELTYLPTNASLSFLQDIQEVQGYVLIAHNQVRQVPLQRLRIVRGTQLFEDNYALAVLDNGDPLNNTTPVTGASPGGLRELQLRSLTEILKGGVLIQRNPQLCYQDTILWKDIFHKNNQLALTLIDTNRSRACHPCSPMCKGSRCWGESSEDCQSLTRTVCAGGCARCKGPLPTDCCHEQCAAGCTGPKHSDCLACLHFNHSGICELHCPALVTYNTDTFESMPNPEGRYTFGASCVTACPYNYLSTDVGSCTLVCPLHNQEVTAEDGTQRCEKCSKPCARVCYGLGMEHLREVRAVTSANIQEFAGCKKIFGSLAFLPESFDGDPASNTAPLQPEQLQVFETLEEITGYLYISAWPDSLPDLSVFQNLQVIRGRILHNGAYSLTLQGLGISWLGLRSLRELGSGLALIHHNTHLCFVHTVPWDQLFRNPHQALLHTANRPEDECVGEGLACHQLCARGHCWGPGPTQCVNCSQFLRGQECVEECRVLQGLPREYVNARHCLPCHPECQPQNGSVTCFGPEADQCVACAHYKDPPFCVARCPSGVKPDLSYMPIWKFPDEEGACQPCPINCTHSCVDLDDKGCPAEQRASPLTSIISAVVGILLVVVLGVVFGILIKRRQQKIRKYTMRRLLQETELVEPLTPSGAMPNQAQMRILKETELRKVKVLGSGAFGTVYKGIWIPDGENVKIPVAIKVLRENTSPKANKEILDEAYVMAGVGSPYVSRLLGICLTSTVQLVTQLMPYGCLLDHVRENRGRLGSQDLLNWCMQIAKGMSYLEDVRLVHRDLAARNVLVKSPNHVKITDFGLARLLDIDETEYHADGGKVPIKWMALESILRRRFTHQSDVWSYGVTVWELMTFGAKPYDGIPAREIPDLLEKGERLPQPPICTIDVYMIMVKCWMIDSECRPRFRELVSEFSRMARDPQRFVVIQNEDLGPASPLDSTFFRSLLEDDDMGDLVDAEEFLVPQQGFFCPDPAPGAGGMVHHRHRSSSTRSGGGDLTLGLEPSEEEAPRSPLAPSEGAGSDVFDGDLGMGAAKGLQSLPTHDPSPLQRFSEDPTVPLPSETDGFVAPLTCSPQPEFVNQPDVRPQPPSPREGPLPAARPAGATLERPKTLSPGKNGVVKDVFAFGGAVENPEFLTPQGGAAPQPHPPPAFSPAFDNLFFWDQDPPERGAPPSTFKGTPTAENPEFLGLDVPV

GI50 (Axl+ Ba/F3 cells) | IC50 (HER2+/2VE Ba/F3 line; Mus musculus, BaF3) | GI50 [2] | IC50 (HER2+/2VE Ba/F3 line) | SMILES | IC50 ([1]; Mus musculus, BaF3) | IC50 [1]
> 3330 nM | 908 nM | 39.5 nM | – | COc1ccc(-c2ccco2)cc1Nc1ncnc2[nH]nc(-c3ccco3)c12 [55A] | > 10000 nM | –
> 3330 nM | > 3330 nM | > 3330 nM | – | CC(=O)c1cccc(-c2n[nH]c3ncnc(Nc4cc(-c5ccccc5)ccc4C)c23)c1 [Cmpd 5-001A] | > 10000 nM | –
> 10000 nM | > 10000 nM | > 10000 nM | – | CC(=O)c1cccc(-c2n[nH]c3ncnc(Nc4ccc(Oc5ccccc5)cc4)c23)c1 [Cmpd 5-001B] | > 10000 nM | –
6940 nM | 3150 nM | 2590 nM | – | COc1ccc(-c2ccccc2)cc1Nc1ncnc2[nH]ncc12 [Cmpd 5-004] | > 3330 nM | –
2960 nM | 3400 nM | 839 nM | – | COc1ccc(-c2ccccc2)cc1Nc1ncnc2[nH]nc(-c3ccoc3)c12 [Cmpd 13] | > 10000 nM | –
> 10000 nM | > 10000 nM | > 3330 nM | – | COc1ccc(-c2ccccc2C)cc1Nc1ncnc2[nH]nc(-c3ccsc3)c12 [Cmpd 39A] | > 10000 nM | –
1760 nM | > 3330 nM | > 3330 nM | – | COc1ccc(-c2cccc(C)c2)cc1Nc1ncnc2[nH]nc(-c3ccsc3)c12 [Cmpd 39B] | > 3330 nM | –
> 10000 nM | > 10000 nM | > 10000 nM | – | COc1ccc(-c2ccc(C)cc2)cc1Nc1ncnc2[nH]nc(-c3ccsc3)c12 [Cmpd 39C] | > 10000 nM | –
> 10000 nM | > 10000 nM | > 10000 nM | – | COc1ccc(-c2cccnc2)cc1Nc1ncnc2[nH]nc(-c3ccsc3)c12 [Cmpd 39D] | > 10000 nM | –
> 10000 nM | > 10000 nM | > 3330 nM | – | COc1ccc(N2CCOCC2)cc1Nc1ncnc2[nH]nc(-c3ccsc3)c12 [Cmpd 41A] | > 10000 nM | –
> 1000 nM | > 1000 nM | > 3330 nM | – | COc1ccc(N2CCN(C)CC2)cc1Nc1ncnc2[nH]nc(-c3ccsc3)c12 [Cmpd 41B] | > 3330 nM | –
> 10000 nM | > 10000 nM | > 10000 nM | – | COc1ccc(C(=O)N(C)C)cc1Nc1ncnc2[nH]nc(-c3ccsc3)c12 [Cmpd 42] | > 10000 nM | –
> 3330 nM | > 3330 nM | > 3330 nM | – | COc1ccc(-c2ccccc2)cc1N(C)c1ncnc2[nH]nc(-c3ccsc3)c12 [Cmpd 43] | > 3330 nM | –
1210 nM | 978 nM | 43 nM | – | COc1ccc(-c2ccccc2)cc1Nc1ncnc2[nH]nc(-c3ccco3)c12 [Cmpd 45A] | > 10000 nM | –
4030 nM | 3610 nM | 745 nM | – | COc1ccc(-c2ccccc2)cc1Nc1ncnc2[nH]nc(-c3cccs3)c12 [Cmpd 45B] | > 10000 nM | –
– | 11 nM | 4 nM | – | COc1ccc(-c2ccccc2)cc1Nc1nc(N)nc2[nH]nc(-c3ccco3)c12 [Cmpd 65] | 8.4 nM | –

GI50 (Axl+ Ba/F3 cells) | IC50 (HER2+/2VE Ba/F3 line; Mus musculus, BaF3) | GI50 [2] | IC50 (HER2+/2VE Ba/F3 line) | SMILES | IC50 ([1]; Mus musculus, BaF3) | IC50 [1]
– | 2340 nM | 1560 nM | – | COc1ccc(-c2csc(C)n2)cc1Nc1ncnc2[nH]nc(-c3ccco3)c12 [Cmpd 66A] | – | –
– | 210 nM | 31 nM | – | COc1ccc(-c2sccc2C)cc1Nc1ncnc2[nH]nc(-c3ccco3)c12 [Cmpd 66B] | – | –
– | 642 nM | 362 nM | – | COc1ccc(-c2ccnn2C)cc1Nc1ncnc2[nH]nc(-c3ccco3)c12 [Cmpd 66C] | – | –
– | 1080 nM | 171 nM | – | COc1ccc(-c2ccoc2)cc1Nc1ncnc2[nH]nc(-c3ccccc3)c12 [Cmpd 144A] | > 3330 nM | –
– | 308 nM | 21.4 nM | – | COc1ccc(-c2ccoc2)cc1Nc1ncnc2[nH]nc(-c3cnn(C)c3)c12 [Cmpd 144B] | > 3330 nM | –
– | 359 nM | 58.7 nM | – | CCOc1ccc(-c2ccccc2)cc1Nc1ncnc2[nH]nc(-c3cn[nH]c3)c12 [Cmpd 147] | 1360 nM | –
– | 2570 nM | 822 nM | – | COc1ccc(-c2ccoc2)cc1Nc1ncnc2[nH]nc(-c3ccnn3C)c12 [Cmpd 152] | > 10000 nM | –
– | 285 nM | 17.5 nM | – | CCOc1ccc(-c2ccoc2)cc1Nc1ncnc2[nH]nc(-c3cn[nH]c3)c12 [Cmpd 153] | > 3330 nM | –
– | > 10000 nM | > 10000 nM | – | COc1ccc(-c2ccnn2C)cc1Nc1ncnc2[nH]nc(-c3cn[nH]c3)c12 [Cmpd 154A] | > 10000 nM | –
– | 295 nM | 39.3 nM | – | COc1ccc(-c2sccc2C)cc1Nc1ncnc2[nH]nc(-c3cn[nH]c3)c12 [Cmpd 154B] | > 10000 nM | –
– | > 10000 nM | > 10000 nM | – | COc1ccc(-c2cnn(C)c2)cc1Nc1ncnc2[nH]nc(-c3cn[nH]c3)c12 [Cmpd 154C] | > 10000 nM | –
– | 673 nM | 687 nM | – | COc1ccc(-c2ccc(C#N)s2)cc1Nc1ncnc2[nH]cc(-c3cn[nH]c3)c12 [Cmpd 170] | – | –
– | 183 nM | 45 nM | – | CCOc1ccc(-c2ccccc2)cc1Nc1ncnc2[nH]cc(-c3cn[nH]c3)c12 [Cmpd 171] | – | –
– | 422 nM | 910 nM | – | COc1ccc(-c2csc(C)c2)cc1Nc1ncnc2[nH]cc(-c3cn[nH]c3)c12 [Cmpd 172] | – | –
– | 228 nM | 32 nM | – | COc1ccc(-c2ccoc2)cc1Nc1ncnc2[nH]cc(-c3ccc4nc[nH]c4c3)c12 [Cmpd 173B] | – | –
– | – | 29 nM | 217 nM | CCOc1ccc(-c2ccccc2)cc1Nc1ncnc2[nH]cc(-c3cc[nH]n3)c12 [Cmpd 176] | – | 2290 nM
